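Cells were grown in 96-well plates and exposed to each compound for 48 hours at five concentrations; endpoints were interpolated linearly between bracketing concentrations, or set to the highest concentration if not reached. TGI: total growth inhibition.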
Experiments:
Experiment in all cases: growth of human tumour cells (NCI), 48 h
[1] = test system: 786-0 renal
[2] = test system: A498 renal
[3] = test system: A549 NSCLC
[4] = test system: ACHN renal
[5] = test system: CAKI-1 renal
[6] = test system: CCRF-CEM leukemia
[7] = test system: DLD-1 colon
[8] = test system: DMS 114 small cell lung
[9] = test system: DMS 273 small cell lung
[10] = test system: EKVX NSCLC
[11] = test system: HCC-2998 colon
[12] = test system: HCT-116 colon
[13] = test system: HL-60(TB) leukemia
[14] = test system: HOP-62 NSCLC
[15] = test system: HT29 colon
[16] = test system: IGROV1 ovarian
[17] = test system: K-562 leukemia
[18] = test system: KM12 colon
[19] = test system: KM20L2 colon
[20] = test system: LXFL 529 NSCLC
[21] = test system: M14 melanoma
[22] = test system: M19-MEL melanoma
[23] = test system: MALME-3M melanoma
[24] = test system: MOLT-4 leukemia
[25] = test system: NCI-H226 lung
[26] = test system: NCI-H23 lung
[27] = test system: NCI-H460 lung
[28] = test system: NCI-H522 lung
[29] = test system: OVCAR-3 ovarian
[30] = test system: OVCAR-4 ovarian
[31] = test system: OVCAR-5 ovarian
[32] = test system: OVCAR-8 ovarian
[33] = test system: RXF 393 renal
[34] = test system: SF-268 CNS
[35] = test system: SF-295 CNS
[36] = test system: SF-539 CNS
[37] = test system: SK-MEL-2 melanoma
[38] = test system: SK-MEL-28 melanoma
[39] = test system: SK-MEL-5 melanoma
[40] = test system: SK-OV-3 ovarian
[41] = test system: SN12C renal
[42] = test system: SNB-19 CNS
[43] = test system: SNB-75 CNS
[44] = test system: SNB-78 CNS
[45] = test system: SR leukemia
[46] = test system: SW-620 colon
[47] = test system: TK-10 renal
[48] = test system: U251 CNS
[49] = test system: UACC-257 melanoma
[50] = test system: UACC-62 melanoma
[51] = test system: UO-31 renal
[52] = test system: XF 498 CNS
[53] = test system: COLO 205 colon
[54] = test system: HCT-15 colon
[55] = test system: LOX IMVI melanoma
[56] = test system: RPMI-8226 leukemia

Measured: TGI

Oc1c(-c2ccccc2)nc2ccccn12
not listed: [53] | [54] | [55] | [56]
> 100 µM: all other assays above

N#Cc1c2nc3ccccc3nc2n2ccccc12
not listed: [15] | [25] | [33] | [35]
> 100 µM: all other assays above

COC(=O)c1nn(-c2ccccc2)c(=O)cc1N=[N+]=[N-]
not listed: [7] | [37] | [43]
> 100 µM: all other assays above

From PubChem BioAssay (NCI)
